According to patent publication US9718790B2, “Triazine derivative and pharmaceutical composition having an analgesic activity comprising the same” (SHIONOGI & CO., LTD., priority 2010, dated 2017):

Molecular target: human P2X3 receptor (Homo sapiens (Human), UniProt P56373)
Test: Evaluation of human P2X3 receptor inhibitory activity (Fluo-3 calcium fluorescence, FDSS 3000, ATP stimulation);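 also: stimulus was 50 nM ATP with fluorescence followed for 3 min, and the response per well was peak post-ATP fluorescence divided by the reading at measurement start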
Type: cell-based
Conditions: C6BU-1 cells stably expressing human P2X3 receptor

Chain of human P2X3 receptor (P56373 whole entry): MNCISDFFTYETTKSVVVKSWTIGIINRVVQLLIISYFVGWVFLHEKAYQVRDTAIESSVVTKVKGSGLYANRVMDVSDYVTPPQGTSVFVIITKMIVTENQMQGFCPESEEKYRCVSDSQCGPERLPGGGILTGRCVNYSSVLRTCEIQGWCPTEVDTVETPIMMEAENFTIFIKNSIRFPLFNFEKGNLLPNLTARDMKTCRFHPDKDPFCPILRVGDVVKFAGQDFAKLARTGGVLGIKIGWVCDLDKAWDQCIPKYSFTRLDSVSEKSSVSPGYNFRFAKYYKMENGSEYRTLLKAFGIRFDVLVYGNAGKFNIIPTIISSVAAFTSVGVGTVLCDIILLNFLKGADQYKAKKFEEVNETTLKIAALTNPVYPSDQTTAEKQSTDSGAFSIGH

Structure (SMILES)	IC50 [nM]	IC50 (Fluo-3 fluorescence, FDSS 3000) [nM]
CCOC(=O)CCn1c(=O)[nH]/c(=N\c2ccc(OC(C)C)c(F)c2)n(CC2CCCCCCC2)c1=O [Compound I-1911]	253	
CNC(=O)CCn1c(=O)[nH]/c(=N\c2ccc(OCC3CC3)cc2)n(Cc2ccc(Cl)cc2)c1=O [Compound I-1912]	29	
CNC(=O)CCn1c(=O)[nH]/c(=N\c2ccc(OC3CCC3)cc2)n(Cc2ccc(Cl)cc2)c1=O [Compound I-1913]	19	
NC(=O)CCn1c(=O)[nH]/c(=N\c2ccc(OCC3CC3)cc2)n(Cc2ccc(Cl)cc2)c1=O [Compound I-1914]	46	
NC(=O)CCn1c(=O)[nH]/c(=N\c2ccc(OC3CCC3)cc2)n(Cc2ccc(Cl)cc2)c1=O [Compound I-1915]	23	
CC(C)Oc1ccc(/N=c2\[nH]c(=O)n(CCC(=O)O)c(=O)n2CC2CCCCCCC2)cc1F [Compound I-1916]	995	
O=c1[nH]/c(=N\c2ccc(OCC3CC3)cc2)n(Cc2ccc(Cl)cc2)c(=O)n1CCCO [Compound I-1917]	23	
O=c1[nH]/c(=N\c2ccc(OC3CCC3)cc2)n(Cc2ccc(Cl)cc2)c(=O)n1CCCO [Compound I-1918]	12	
COC(=O)c1cccc(Oc2ccc(/N=c3\[nH]c(=O)[nH]c(=O)n3Cc3ccc(Cl)cc3)cc2)c1 [Compound I-1919]	214	
O=C(O)c1cccc(Oc2ccc(/N=c3\[nH]c(=O)[nH]c(=O)n3Cc3ccc(Cl)cc3)cc2)c1 [Compound I-1923]	84	
CCn1c(=O)[nH]/c(=N\c2ccc(Oc3cccc(C(N)=O)c3)cc2)n(Cc2ccc(Cl)cc2)c1=O [Compound I-1925]	6	
Cc1cc(Oc2ccc(/N=c3\[nH]c(=O)n(CC(N)=O)c(=O)n3Cc3ccc(Cl)cc3)cc2)ccn1 [Compound I-1926]	10	
CNC(=O)Cn1c(=O)[nH]/c(=N\c2ccc(Oc3ccnc(C)c3)cc2)n(Cc2ccc(Cl)cc2)c1=O [Compound I-1927]	7	
Cc1cc(Oc2ccc(/N=c3\[nH]c(=O)n(CC(=O)NCCO)c(=O)n3Cc3ccc(Cl)cc3)cc2)ccn1 [Compound I-1928]	5	
COC(=O)Cn1c(=O)[nH]/c(=N\c2ccc(OCC3CC3)cc2)n(Cc2ccc(Cl)cc2)c1=O [Compound I-1930]	29	
CCOC(=O)CCn1c(=O)[nH]/c(=N\c2ccc3[nH]c(C)c(C)c3c2)n(Cc2ccc(Cl)cc2)c1=O [Compound I-1931]	9	
O=C(O)Cn1c(=O)[nH]/c(=N\c2ccc(Oc3ccnc(O)c3)cc2)n(Cc2ccc(Cl)cc2)c1=O [Compound I-1932]	95	
Cc1ccc(Oc2ccc(/N=c3\[nH]c(=O)n(CC(=O)O)c(=O)n3Cc3ccc(Cl)cc3)cc2)cn1 [Compound I-1934]	198	
Cc1[nH]c2ccc(/N=c3\[nH]c(=O)n(CC(CO)CO)c(=O)n3Cc3ccc(Cl)cc3)cc2c1C [Compound I-1935]	9	
CCOC(=O)CCn1c(=O)[nH]/c(=N\c2ccc(Oc3cccc(F)c3)cc2)n(Cc2ccc(Cl)cc2)c1=O [Compound I-1937]	22	
CCOC(=O)c1cc2cc(/N=c3\[nH]c(=O)n(C[C@H](C)C(=O)OC)c(=O)n3Cc3ccc(Cl)cc3)ccc2o1 [Compound I-1938]	312	
COC(=O)Cn1c(=O)[nH]/c(=N\c2ccc(OC3CCC3)cc2)n(Cc2ccc(Cl)cc2)c1=O [Compound I-1939]	30	

Structure (SMILES)	IC50 [nM]	IC50 (Fluo-3 fluorescence, FDSS 3000) [nM]
NC(=O)Cn1c(=O)[nH]/c(=N\c2ccc(OCC3CC3)cc2)n(Cc2ccc(Cl)cc2)c1=O [Compound I-1940]	55	
CCn1c(=O)[nH]/c(=N\c2ccc(Oc3cc(C(=O)OC)on3)cc2)n(Cc2ccc(Cl)cc2)c1=O [Compound I-1941]	5	
CNC(=O)Cn1c(=O)[nH]/c(=N\c2ccc(OCC3CC3)cc2)n(Cc2ccc(Cl)cc2)c1=O [Compound I-1942]	49	
O=C(O)Cn1c(=O)[nH]/c(=N\c2ccc(OC3CCC3)cc2)n(Cc2ccc(Cl)cc2)c1=O [Compound I-1943]	258	
Cc1ccc(Oc2ccc(/N=c3\[nH]c(=O)n(CC(N)=O)c(=O)n3Cc3ccc(Cl)cc3)cc2)cn1 [Compound I-1944]	11	
CNC(=O)Cn1c(=O)[nH]/c(=N\c2ccc(Oc3ccc(C)nc3)cc2)n(Cc2ccc(Cl)cc2)c1=O [Compound I-1945]	8	
NC(=O)Cn1c(=O)[nH]/c(=N\c2ccc(OC3CCC3)cc2)n(Cc2ccc(Cl)cc2)c1=O [Compound I-1946]	25	
CCc1cc2cc(/N=c3\[nH]c(=O)n(C[C@H](C)C(=O)OC)c(=O)n3Cc3ccc(Cl)cc3)ccc2s1 [Compound I-1947]	353	677
CNC(=O)Cn1c(=O)[nH]/c(=N\c2ccc(OC3CCC3)cc2)n(Cc2ccc(Cl)cc2)c1=O [Compound I-1948]	22	
Cc1[nH]c2ccc(/N=c3\[nH]c(=O)n(CCCO)c(=O)n3Cc3ccc(Cl)cc3)cc2c1C [Compound I-1949]	5	
Cc1[nH]c2ccc(/N=c3\[nH]c(=O)n(CCC(=O)O)c(=O)n3Cc3ccc(Cl)cc3)cc2c1C [Compound I-1950]	29	
O=C(O)CCn1c(=O)[nH]/c(=N\c2ccc(Oc3cccc(F)c3)cc2)n(Cc2ccc(Cl)cc2)c1=O [Compound I-1951]	25	
C[C@@H](Cn1c(=O)[nH]/c(=N\c2ccc3oc(C(=O)O)cc3c2)n(Cc2ccc(Cl)cc2)c1=O)C(=O)O [Compound I-1952]	781	
Cc1ccc(Cn2c(=O)n(CCCO)c(=O)[nH]/c2=N\c2ccc(O[C@H](C)C(F)(F)F)cc2)cc1 [Compound I-1953]	16	
Cc1cc(Oc2ccc(/N=c3\[nH]c(=O)n(CC(CO)CO)c(=O)n3Cc3ccc(Cl)cc3)cc2)ccn1 [Compound I-1954]	5	
Cc1cc(Oc2ccc(/N=c3\[nH]c(=O)[nH]c(=O)n3Cc3ccc(Cl)cc3)cc2)ccn1 [Compound I-1955]	97	
C[C@@H](Oc1ccc(/N=c2\[nH]c(=O)n(CCC(N)=O)c(=O)n2Cc2ccc(Cl)cc2)cc1)C(F)(F)F [Compound I-1956]	34	
CNC(=O)CCn1c(=O)[nH]/c(=N\c2ccc(O[C@H](C)C(F)(F)F)cc2)n(Cc2ccc(Cl)cc2)c1=O [Compound I-1957]	22	
C[C@@H](Oc1ccc(/N=c2\[nH]c(=O)n(CCC(=O)NCC(F)(F)F)c(=O)n2Cc2ccc(Cl)cc2)cc1)C(F)(F)F [Compound I-1958]	16	
C[C@@H](Oc1ccc(/N=c2\[nH]c(=O)n(CC(N)=O)c(=O)n2Cc2ccc(Cl)cc2)cc1)C(F)(F)F [Compound I-1959]	65	
CNC(=O)Cn1c(=O)[nH]/c(=N\c2ccc(O[C@H](C)C(F)(F)F)cc2)n(Cc2ccc(Cl)cc2)c1=O [Compound I-1960]	54	
C[C@@H](Oc1ccc(/N=c2\[nH]c(=O)n(CC(=O)NCC(F)(F)F)c(=O)n2Cc2ccc(Cl)cc2)cc1)C(F)(F)F [Compound I-1961]	13	

Structure (SMILES)	IC50 [nM]	IC50 (Fluo-3 fluorescence, FDSS 3000) [nM]
O=c1[nH]c(=O)n(Cc2ccc(Cl)cc2)/c(=N/c2ccc(Oc3ccnc(CO)c3)cc2)[nH]1 [Compound I-1962]	65	
CCn1c(=O)[nH]/c(=N\c2ccc(Oc3cc(C(=O)O)on3)cc2)n(Cc2ccc(Cl)cc2)c1=O [Compound I-1963]	13	
CCc1cc2cc(/N=c3\[nH]c(=O)n(C[C@H](C)C(=O)O)c(=O)n3Cc3ccc(Cl)cc3)ccc2s1 [Compound I-1964]	277	
CC1(C)OCC(Cn2c(=O)[nH]/c(=N\c3ccc(OC4CCC4)cc3)n(Cc3ccc(Cl)cc3)c2=O)CO1 [Compound I-1965]	3	
Cc1[nH]c2ccc(/N=c3\[nH]c(=O)n(CCC(N)=O)c(=O)n3Cc3ccc(Cl)cc3)cc2c1C [Compound I-1966]	11	
CNC(=O)CCn1c(=O)[nH]/c(=N\c2ccc3[nH]c(C)c(C)c3c2)n(Cc2ccc(Cl)cc2)c1=O [Compound I-1967]	8	
CCn1c(=O)[nH]/c(=N\c2ccc(Oc3cc(CO)on3)cc2)n(Cc2ccc(Cl)cc2)c1=O [Compound I-1968]	15	
CCn1c(=O)[nH]/c(=N\c2ccc(Oc3ccc(C(=O)O)cc3)cc2)n(Cc2ccc(Cl)cc2)c1=O [Compound I-1969]	21	
C[C@H](CO)Cn1c(=O)[nH]/c(=N\c2ccc3oc(CO)cc3c2)n(Cc2ccc(Cl)cc2)c1=O [Compound I-1970]	82	
CCOC(=O)[C@@H](C)Cn1c(=O)[nH]/c(=N\c2ccc3oc(CO)cc3c2)n(Cc2ccc(Cl)cc2)c1=O [Compound I-1971]	61	
CCn1c(=O)[nH]/c(=N\c2ccc(Oc3ccc(-c4ncn[nH]4)cc3)cc2)n(Cc2ccc(Cl)cc2)c1=O [Compound I-1973]	2	
O=c1[nH]/c(=N\c2ccc(OC3CCC3)cc2)n(Cc2ccc(Cl)cc2)c(=O)n1CC(CO)CO [Compound I-1974]	7	
Cc1cc(Oc2ccc(/N=c3\[nH]c(=O)n(CCC(=O)O)c(=O)n3CC3CCC(C)CC3)cc2)ccn1 (stereo not shown) [Compound I-1976]	17	
NC(=O)Cn1c(=O)[nH]/c(=N\c2ccc(Oc3ccnc(O)c3)cc2)n(Cc2ccc(Cl)cc2)c1=O [Compound I-1977]	5	
CNC(=O)Cn1c(=O)[nH]/c(=N\c2ccc(Oc3ccnc(O)c3)cc2)n(Cc2ccc(Cl)cc2)c1=O [Compound I-1978]	5	
O=C(Cn1c(=O)[nH]/c(=N\c2ccc(Oc3ccnc(O)c3)cc2)n(Cc2ccc(Cl)cc2)c1=O)NCCO [Compound I-1979]	4	
Cc1ccc(Oc2ccc(/N=c3\[nH]c(=O)n(CC(=O)NCCO)c(=O)n3Cc3ccc(Cl)cc3)cc2)cn1 [Compound I-1980]	7	
CC(C)Oc1ccc(/N=c2\[nH]c(=O)[nH]c(=O)n2Cc2ccc(Cl)cc2)cc1 [Compound I-1981]	354	
CC1(C)OCC(Cn2c(=O)[nH]/c(=N\c3ccc4nc(C5CC5)sc4c3)n(Cc3ccc(Cl)cc3)c2=O)CO1 [Compound I-1982]	9	
O=c1[nH]/c(=N\c2ccc3nc(C4CC4)sc3c2)n(Cc2ccc(Cl)cc2)c(=O)n1CC(CO)CO [Compound I-1983]	10	
COc1cc(/N=c2\[nH]c(=O)n(CC3COC(C)(C)OC3)c(=O)n2Cc2ccc(Cl)cc2)ccc1OC(C)C [Compound I-1984]	9	
COc1cc(/N=c2\[nH]c(=O)n(CC(CO)CO)c(=O)n2Cc2ccc(Cl)cc2)ccc1OC(C)C [Compound I-1985]	11	
